Reference: patent US9592223B2, “Small molecule inhibitors of MALT1” (Cornell University, priority 2012, dated 2017)

Tests used:
[1] = test system: MALT1 dependent ABC-DLBCL cells HBL-1, TMD8, OCI-Ly3 and OCI-Ly10; assay: Growth inhibition, MALT1 dependent cell lines; type: cell-based, human; settings: increasing concentrations, single dose, 48 hr
Experimental: (§1) Endogenous MALT1 activity was evaluated by Western blotting for A20, BCL10 and CYLD; and NF-κB activation, by phospho-IκB-α and total IκB-α. Dependence on MALT1 proteolytic activity for proliferation was tested by 50[…]μM Z-VRPR-FMK treatment for 48 hr. […] The U2932 and HLY1 ABC-DLBCL cell lines harbor mutations in TAK1 and A20, which activate NF-κB signaling downstream of MALT1.
(§2) Cell proliferation was determined by ATP quantification using a luminescent method (CellTiter-Glo, Promega, Madison, Wis.) and Trypan blue dye-exclusion (Sigma, St. Louis, Mo.). Cell viability in drug-treated cells was normalized to their respective controls (fractional viability) and results are given as 1-fractional viability. […]
(§3) DLBCL cell lines were grown in exponential growth conditions during the 48 hr of treatment. Cell proliferation was determined by ATP quantification using a luminescent method (CellTiter-Glo, Promega, Madison, Wis.) and Trypan blue dye-exclusion (Sigma, St. Louis, Mo.). Luminescence was measured using the Synergy4 microplate reader (BioTek Instruments, Winooski, Vt.). Standard curves for each cell line were calculated by plotting the cell number (determined by the Trypan blue method) against their luminescence values and number of cells was calculated accordingly. […]

[2] = test system: ABC-DLBCL MALT1 independent cell lines U2932 and HLY-1; assay: Growth inhibition, MALT1 independent ABC-DLBCL cell lines; type: cell-based, human; settings: increasing concentrations, single dose, 48 hr
Experimental: as §1, §2, §3

[3] = biological target: Caspase-8 (Homo sapiens, UniProt Q14790); assay: Caspase selectivity; type: biochemical
[4] = test system: OCI-Ly1; assay: CFSE dilution assay by flow cytometry, GCB-DLBCL line; type: cell-based, human; settings: viable cells at 48, 72 and 96 h
Experimental: Cell proliferation was examined using the CFSE dilution assay by flow cytometry on viable cells at 48, 72 and 96 h. […] Trypan blue exclusion and apoptosis assessed by Annexin V^+ DAPI^− flow cytometry was measured every 48 hr for a period of 14 days.
CFSE covalently labels long-lived intracellular molecules with carboxyfluorescein. Following each cell division, fluorescent molecules dilute in daughter cells, allowing comparative study of the kinetics of cell division. Cells were stained with DAPI (Sigma), followed by flow cytometry. DAPI^neg cells were gated for analysis.

[5] = test system: HBL-1 ABC-DLBCL xenografts; assay: HBL-1 xenograft in NOD-SCID mice; type: in vivo; settings: IP 25 mg/kg/day
Experimental: Animals were sacrificed 24 hr after the fourteenth injection.
Eight-week old male SCID NOD.CB17-Prkdc^scid/J mice were subcutaneously injected with low-passage 10^7 human HBL-1, TMD8 or OCI-Ly1 cells. Treatment was administered by intra-peritoneal injection. Tumor volume was monitored by three-weekly digital calipering. All procedures followed US NIH protocols and were approved by the Animal Institute Committee of the Weill Cornell Medical College.
Eight-week old male SCID NOD.CB17-Prkdc^scid/J mice were purchased from Jackson Laboratories (Bar Harbor, Minn.) and housed in a clean environment. Mice were subcutaneously injected with low-passage 10^7 human TMD8 or OCI-Ly1 cells in 50% matrigel (BD Biosciences, #354234). Treatment was initiated when tumors reached an average size of 120 mm^3 (17 days post-transplantation). Drugs were reconstituted in DMSO and stored at −80° C. until used and were administered by intra-peritoneal injection. Tumor volume was monitored by three-weekly digital calipering (Fisher Scientific, Thermo Scientific, Rockford, Ill.) and calculated using the formula (smallest diameter^2×largest diameter)/2. Data were expressed as mean±SEM, and differences were considered statistically significant at p<0.05 by paired Student's t-test. All procedures involving animals followed US NIH protocols and were approved by the Animal Institute Committee of the Weill Cornell Medical College of Cornell University.
Paraffin-embedded tumor xenografts were sectioned, dewaxed and submitted to antigen retrieval. For IF-P, Alexa Fluor-488 conjugated secondary antibodies from Invitrogen where used and cell nuclei where counterstained with DAPI. Fluorescent images were taken using an Axiovert 200M fluorescent microscope (Carl Zeiss Inc., Thornwood, N.Y.). Oberkochen, Germany). For IHC, biotin-conjugated secondary antibodies where used. Then avidin/biotin peroxidase was applied to the slides (Vector Laboratories). Color was developed with diaminobenzoate chromogen peroxidase substrate (Vector) and counterstained with hematoxilin-eosyn. […]

[6] = test system: primary human GCB DLBCL cells; assay: Primary human DLBCL cells ex vivo, GCB cases, Trypan blue; type: cell-based; settings: 0.8 μM, 48 hr
Experimental: After 48 hr exposure, cell number and viability were determined using Trypan blue.
Patient de-identified tissues were obtained in accordance with the guidelines and approval of the Weill Cornell Medical College Review Board. Patient samples were processed as previously described (Cerchietti et al., 2010). Briefly, single cell suspensions from lymph node biopsies were obtained by physical disruption of tissues followed by cell density gradient separation (Fico/Lite LymphoH, Atlanta Biologicals, Lawrenceville, Ga.). Cell number and viability were determined by Trypan blue exclusion. Primary DLBCL cells were cultured in 96-well plates. Cells were grown in advanced RPMI medium with 20% FBS supplemented with antibiotics for 48 hours. […] After 48 hr of exposure, viability was determined by using Trypan blue (Sigma). All samples were normalized to their own replicate control. Statistical significance was calculated using paired T-test.

Caspase-8, sequence (Q14790 217-374 limits assumed): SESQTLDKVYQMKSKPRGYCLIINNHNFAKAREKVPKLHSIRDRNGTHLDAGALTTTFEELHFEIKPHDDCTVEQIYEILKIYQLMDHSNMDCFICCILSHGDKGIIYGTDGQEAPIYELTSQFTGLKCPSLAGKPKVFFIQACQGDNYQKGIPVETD
Caspase-8, sequence (Q14790 385-479 limits assumed): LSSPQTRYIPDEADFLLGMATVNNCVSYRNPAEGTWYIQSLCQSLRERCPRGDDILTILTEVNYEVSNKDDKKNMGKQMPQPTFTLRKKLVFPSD

With `COCCOc1nc(-c2ccc(Cl)c(Cl)c2)n(-c2ccc(NC(=O)CCl)cc2)n1` [MI-2] the growth inhibition [1] was “selective for MALT1 dependent cell lines”, the growth inhibition [2] was “resistant” and the “activity against Caspase-8” value [3] was “little activity”. The “cell proliferation (CFSE dilution)” value [4] was “did not affect”, the “xenograft growth vs. vehicle” value ([5]; fourteen injections, p=0.014) was “profoundly suppressed the growth” and the “proliferation (Ki-67 staining)” value ([5]; p<0.0001) was “significant decrease in proliferation”. The “apoptotic cells (TUNEL assay)” value ([5]; p=0.0008) was “significant increase in apoptotic cells” and the “response of cell number and viability” value [6] was “none of the GCBs did”.
